Results from PubChem BioAssay (NCI).
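How tested: cells in 96-well plates exposed to compound for 48 hours at five concentrations. TGI denotes the concentration required for complete inhibition of growth.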

How the values were obtained:
Test in all cases: NCI-60 cell line screen, 48 h
[1] = system: NCI-H460 lung
[2] = system: UO-31 renal
[3] = system: TK-10 renal
[4] = system: NCI-H226 lung
[5] = system: DU-145 prostate
[6] = system: SF-295 CNS
[7] = system: MCF7 breast
[8] = system: SK-MEL-28 melanoma
[9] = system: SK-MEL-2 melanoma
[10] = system: CCRF-CEM leukemia
[11] = system: 786-0 renal
[12] = system: SNB-75 CNS
[13] = system: OVCAR-5 ovarian
[14] = system: KM12 colon

Measured: TGI

CC(=O)OCC(Br)C1(C)CCC(C(C)(C)Br)O1 (configuration not stated)
> 100 µM: all assays above

CCCC[C@H]1CCN2C[C@@H](O)[C@@H](O)[C@H]2[C@@H]1O
> 100 µM: all assays above

Cc1ncc([N+](=O)[O-])n1CCNC(=O)Cn1c([N+](=O)[O-])cnc1C
> 100 µM: all assays above

Cc1cc2c(cc1Cl)SC(NNc1ccc([N+](=O)[O-])cc1)=NS2(=O)=O
> 10 µM: all assays above

N#CC(C#N)=Cn1c(=S)[nH]c2ccccc21
> 100 µM: all assays above

S=c1[nH]nc(NNc2ccccc2)n1Nc1ccccc1
42 µM: [10]
> 96.6 µM: [4]
> 54.6 µM: [1]
> 100 µM: all other assays above

CC(C)C(NC(=O)C(Cc1ccccc1)NC(=O)[C@H]1CCC[C@H]1NC(=O)C(N)Cc1ccc(O)cc1)C(N)=O (some centres not stated)
> 100 µM: all assays above

CCC(=O)C(C(C)/C=C/CCSc1ccccc1)C(O)CCCCCC(=O)OC (configuration not stated)
> 100 µM: all assays above

CNCCC=C1c2ccccc2CCc2ccccc21
29.6 µM: [14]
21.6 µM: [12]
29.3 µM: [10]
28 µM: [3]
27.8 µM: [6]
28.5 µM: [1]
38 µM: [4]
27.7 µM: [11]
28.8 µM: [5]
30.4 µM: [7]
29.2 µM: [9]
27 µM: [8]
18.2 µM: [2]
30.2 µM: [13]

COc1ccc(CCNC(=O)[C@H]2CCCC[C@@H]2CCO)cc1OC
> 100 µM: all assays above

COc1ccc(C(=O)Nc2ccc3oc(-c4ccccc4)nc3c2)cc1
0.838 µM: [2]
89.8 µM: [12]
> 100 µM: all other assays above

COc1ccc(N2C(=O)CC(c3c[nH]c4ncccc34)C2=O)cc1 (configuration not stated)
19.5 µM: [3]
16.8 µM: [10]
49.7 µM: [11]
> 58.3 µM: [8]
> 76.9 µM: [7]
> 100 µM: all other assays above

O=C(NNC(=O)c1ccccc1O)c1ccc(O)cc1
94.7 µM: [9]
> 100 µM: all other assays above
